# Experimental data published in US20020016369A1, “Use of nimesulide for the treatment of psoriasis and psoriatic arhtritis” (priority 2000, published 2002).
# Test system: patients affected by psoriatic arthritis
# Experimental: Controlled double-blind clinical trials were carried out on patients 18 to 70 years old affected by psoriatic arthritis showing at least three swollen joints, absence of rheumatoid factor and no other rheumatic conditions.
# The patients, who received no previous pharmacological treatment with antirheumatic drugs during the three-month pre-study period, were treated for 4 weeks with Nimesulide (100 to 400 mg/day orally or application of a 3% gel twice a day).
# At the end of the treatment period, the following parameters were evaluated:
# number of tender and swollen joints
# skin symptoms evaluated according to the Psoriasis Area Severity Index (PASI)
# [1] = patients 18 to 70 years old, 4 weeks, 100 to 400 mg/day orally or 3% gel twice a day
smiles,measurement,setting,value
CS(=O)(=O)Nc1ccc([N+](=O)[O-])cc1Oc1ccccc1 [Nimesulide],action on joint flogosis,general statement of finding,beneficial action on joint flogosis
same,effect on skin lesions,general statement of finding,remarkable improvement of such lesions
same,clinical efficacy in oligopolyarticular psoriatic arthritis,[1],clinically effective in the treatment of oligopolyarticular psoriatic arthritis in a statistically significant way
same,toxic or untoward effects (tolerability),[1],"no toxic or untoward effect, particularly no gastrointestinal adverse effect"
